{"source": "patent US20250255850A1", "about": "“PHARMACEUTICAL COMPOSITIONS FOR TREATING NEUROLOGICAL CONDITIONS” (YISSUM RESEARCH DEVELOPMENT COMPANY OF THE HEBREW …, priority 2021, published 2025)", "key": {"nNOS": {"biological_target": "T1, nNOS (Homo sapiens, UniProt P29475)", "T1 construct": "SH-SY5Y cells grown in six-well culture plates were lysed in 50 mM Tris-HCl buffer (pH 7.4); endogenous in cells; host or cells: SH-SY5Y (human neuroblastoma, ATCC)", "T1 sequence (P29475 whole entry)": "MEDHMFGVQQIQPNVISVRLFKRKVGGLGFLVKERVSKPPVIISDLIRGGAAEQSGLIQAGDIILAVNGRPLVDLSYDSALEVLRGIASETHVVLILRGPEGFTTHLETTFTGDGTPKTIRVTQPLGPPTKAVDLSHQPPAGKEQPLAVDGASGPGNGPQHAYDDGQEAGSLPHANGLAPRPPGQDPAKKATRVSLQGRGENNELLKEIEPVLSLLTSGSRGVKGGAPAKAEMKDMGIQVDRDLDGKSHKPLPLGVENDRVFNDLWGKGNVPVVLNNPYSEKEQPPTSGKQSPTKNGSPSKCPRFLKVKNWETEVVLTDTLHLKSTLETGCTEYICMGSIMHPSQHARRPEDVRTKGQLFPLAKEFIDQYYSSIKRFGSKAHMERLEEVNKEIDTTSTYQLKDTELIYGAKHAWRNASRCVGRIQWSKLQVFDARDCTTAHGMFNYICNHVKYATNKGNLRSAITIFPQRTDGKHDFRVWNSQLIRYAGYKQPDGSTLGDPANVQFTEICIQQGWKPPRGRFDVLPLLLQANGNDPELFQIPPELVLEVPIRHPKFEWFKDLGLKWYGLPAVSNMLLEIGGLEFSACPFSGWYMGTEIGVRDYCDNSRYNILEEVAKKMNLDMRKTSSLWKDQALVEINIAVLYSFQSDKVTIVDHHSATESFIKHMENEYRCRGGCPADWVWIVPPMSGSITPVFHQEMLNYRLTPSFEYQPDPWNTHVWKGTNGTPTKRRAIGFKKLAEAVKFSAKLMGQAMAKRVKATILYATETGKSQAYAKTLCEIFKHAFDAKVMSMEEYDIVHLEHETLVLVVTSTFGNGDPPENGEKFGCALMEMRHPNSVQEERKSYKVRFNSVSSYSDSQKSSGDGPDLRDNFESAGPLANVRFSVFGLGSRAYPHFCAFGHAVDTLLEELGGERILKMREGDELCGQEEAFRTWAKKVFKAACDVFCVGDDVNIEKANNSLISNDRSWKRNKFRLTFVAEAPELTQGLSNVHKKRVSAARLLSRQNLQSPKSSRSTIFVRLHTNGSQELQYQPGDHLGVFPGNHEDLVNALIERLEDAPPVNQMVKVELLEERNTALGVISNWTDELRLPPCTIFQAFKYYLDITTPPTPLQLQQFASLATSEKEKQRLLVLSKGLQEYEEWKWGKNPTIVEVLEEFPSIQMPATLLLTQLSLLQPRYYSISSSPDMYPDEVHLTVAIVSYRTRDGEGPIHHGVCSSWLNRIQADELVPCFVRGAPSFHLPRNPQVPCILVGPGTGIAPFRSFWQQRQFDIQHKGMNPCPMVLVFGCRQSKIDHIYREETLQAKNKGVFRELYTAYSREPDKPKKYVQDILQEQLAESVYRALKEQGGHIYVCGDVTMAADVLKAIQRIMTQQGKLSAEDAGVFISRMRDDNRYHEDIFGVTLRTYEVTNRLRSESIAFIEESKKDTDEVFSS", "experiment": "NADPH-diaphorase activity assay in SH-SY5Y cell lysates", "format": "cell-based", "conditions": "7-NI 100 μM 24 hours or 20 nM nNOS siRNA 24 hours", "experimental": "Human NB SH-SY5Y cells were obtained from the American Type Culture Collection (ATCC) and maintained in Dulbecco's modified Eagle's medium (DMEM) and Ham's F-12 (1:1) supplemented with 10% fetal bovine serum, 2 mM L-glutamine, and 100 U/ml penicillin-G/100 […] streptomycin in a humidified atmosphere (37° C., 5% CO2). Cells were plated onto 25 cm^2 and 75 cm^2 plates at a density of 7.0×10^5 and 2.1×10^6 cells/cm^2 respectively for Western blotting (WB) and 1×10^5 for immunofluorescence. The SH-SY5Y cells were treated with 100 μM 7-nitroindazole (7-NI) for 24 hours (Fujibayashi et al., 2015). This concentration was confirmed in a dose-response experiment (FIG. 14A) using an MTT viability assay. […]\nThe NADPH-diaphorase activity assay was used to determine the NOS activity based on the NADPH-dependent reduction of nitro-blue tetrazolium salt (NBT) to visible formazan (Amaroli and Chessa, 2012; Seckler et al., 2020). […] After a 15 min incubation period at 37° C., the production of formazan was measured spectrophotometrically at 585 nm. The data were expressed as absorbance units and normalized for the protein content of each sample. Protein concentration was measured by the bicinchoninic acid (BCA) protein assay using BSA as a standard (Ortiz-Ortiz et al., 2009). Released NO was measured using a Griess Assay Kit (Beyotime, Shanghai, China) according to the manufacturer's instructions."}, "SHANK3 mutant mice": {"tested_on": "SHANK3 mutant mice", "experiment": "Open field test, SHANK3 mutant mice", "format": "in vivo, mouse", "conditions": "7-NI i.p. 20, 50 and 80 mg/kg", "experimental": "Open field test: Mice were tested in an open field (45×45 cm) virtually divided into central and peripheral regions. Animal activity was recorded by video tracking (Noldus Ethovision). Each mouse was allowed to explore the apparatus for 5 minutes. The distance traveled, the number of rears and revolutions, the number of grooming bouts and cumulative grooming time, the number of head shaking or twitches, the number of entries in the center, and the time spent in the central and peripheral regions were recorded. Measures were recorded in 5-minute intervals.\nA dose dependent study was conducted to determine the optimal dose that may produce the greatest effect on mice behavior. The SHANK3 mutant mice (n=5 for each group) were treated with the 7-NI (i.p) at doses of 0, 20, 50, and 80 mg/kg. This was followed by a set of behavioral tests to assess the proper dose of 7-NI that can reverse the autistic phenotypes observed in this model.\nInitially, an open field test was performed to examine the general motor activity levels in mice that is measured by the distance travelled and velocity.\nA 100 μL injection of the poly(sebacic acid-ricinoleic acid) (PSARA) gel formulation with 7NI was used to evaluate its effect in reversing ASD-like behaviors in SHANK3 mice. The motor activity, social interaction, anxiety and interest behaviors were examined using the behavior analyses as described herein."}, "CNTNAP2−/− mutant mice": {"tested_on": "CNTNAP2−/− mutant mice", "experiment": "Elevated plus maze test, CNTNAP2-/- mutant mice (M2)", "format": "in vivo, mouse", "conditions": "7-NI i.p. 80 mg/kg daily for 10 days, vs untreated mutant mice", "experimental": "(§1) Behavioral testing started after 2 hours of treatment.\nElevated plus maze test (see, FIG. 4C): The elevated plus-maze consisted of four arms (30×5 cm), two open, and the other two closed. The platform was made of white plexiglass. The apparatus was elevated 45 cm above the floor. The test, described in, was initiated by placing the mouse on the central platform of the maze, facing one of the open arms, and letting it move freely. Each session lasted 5 min. The time spent in the close and open arms was recorded.\nIn another set of tests, the potential effects of inhibiting NO on the cognitive functions was assayed on an additional mouse model of ASD-CNTNAP2−/− mutant mice. The mice were divided into three testing groups: WT mice, CNTNAP2−/− mutant mice (M2), and mutant mice that were administered with 7-NI (M2+7NI)."}, "3-nitrotyrosine [1]": {"tested_on": "3-nitrotyrosine", "experiment": "Western blot of 3-nitrotyrosine in cortical tissue, CNTNAP2(-/-) mutant group (M2)", "format": "in vivo, mouse", "conditions": "CNTNAP2(-/-) mutant mice treated with 7-NI (M2+7-NI) vs M2", "experimental": "as §1\n(§2) To further corroborate these findings, the expression of 3-nitrotyrosine in cortical tissue of the wild type (WT), compared with the SHANK3 mutant group (M1), and SHANK3 group treated with 7-NI (M1+7-NI), and in cortical tissue of the wild type (WT), compared with the CNTNAP2^(−/−) mutant group (M2), and the CNTNAP2^(−/−) mutant group treated with 7-NI (M2+7—NI) was tested, and the obtained data is presented in FIGS. 3C-D (for M1) and in FIGS. 3E-F (for M2)."}, "[2]": {"conditions": "even in very high doses; Biopharm. Drug Dispos. 2000, 21, 221-228; cited from earlier work"}, "3-nitrotyrosine [3]": {"tested_on": "3-nitrotyrosine", "experiment": "Western blot of 3-nitrotyrosine in cortical tissue, SHANK3 mutant group (M1)", "format": "in vivo, mouse", "conditions": "SHANK3 mutant mice treated with 7-NI (M1+7-NI) vs M1", "experimental": "as §1, §2"}}}
{"compound": "O=[N+]([O-])c1cccc2cn[nH]c12", "note": "[7-NI, 7-nitroindazole]", "values": [{"measurement": "NADPH diaphorase activity", "setting": "nNOS", "result": "significantly inhibited"}, {"measurement": "motor activity (distance travelled and velocity, open field)", "setting": "SHANK3 mutant mice", "result": "no significant difference in the motor activity"}, {"measurement": "anxiety like behaviors (elevated plus maze)", "setting": "CNTNAP2−/− mutant mice", "result": "exhibited less anxiety like behaviors"}, {"measurement": "expression of 3-Ntyr in cortical tissue", "setting": "3-nitrotyrosine [1]", "result": "reduced the expression of 3-Ntyr"}, {"measurement": "half-life", "setting": "[2]", "result": "≤ 2", "unit": "h"}, {"measurement": "expression of 3-Ntyr in cortical tissue", "setting": "3-nitrotyrosine [3]", "result": "reduced the expression of 3-Ntyr"}]}
